Legend:
[1] = tested on: Tyrosine-protein kinase ABL1 (Homo sapiens), P00519 [F317I]; conditions: Compound concentration 1000.0 nM
[2] = tested on: Tyrosine-protein kinase ABL1 (Homo sapiens), P00519 [H396P]; conditions: Compound concentration 1000.0 nM
[3] = molecular target: Calcium/calmodulin-dependent protein kinase type 1G (Homo sapiens) (UniProt Q96NX5); conditions: Compound concentration 1000.0 nM
[4] = molecular target: Calcium/calmodulin-dependent protein kinase type II subunit beta (Homo sapiens) (UniProt Q13554); conditions: Compound concentration 1000.0 nM
[5] = molecular target: Casein kinase I isoform delta (Homo sapiens) (UniProt P48730); conditions: Compound concentration 1000.0 nM
[6] = molecular target: Casein kinase I isoform gamma-2 (Homo sapiens) (UniProt P78368); conditions: Compound concentration 1000.0 nM
[7] = molecular target: Casein kinase II subunit alpha' (Homo sapiens) (UniProt P19784); conditions: Compound concentration 1000.0 nM
[8] = molecular target: Death-associated protein kinase 2 (Homo sapiens) (UniProt Q9UIK4); conditions: Compound concentration 1000.0 nM
[9] = molecular target: Ephrin type-B receptor 1 (Homo sapiens) (UniProt P54762); conditions: Compound concentration 1000.0 nM
[10] = molecular target: Ephrin type-B receptor 4 (Homo sapiens) (UniProt P54760); conditions: Compound concentration 1000.0 nM
[11] = molecular target: Receptor tyrosine-protein kinase erbB-4 (Homo sapiens) (UniProt Q15303); conditions: Compound concentration 1000.0 nM
[12] = molecular target: Mitogen-activated protein kinase 1 (Homo sapiens) (UniProt P28482); conditions: Compound concentration 1000.0 nM
[13] = tested on: Receptor-type tyrosine-protein kinase FLT3 (Homo sapiens), P36888 [D835H]; conditions: Compound concentration 1000.0 nM
[14] = molecular target: Glycogen synthase kinase-3 beta (Homo sapiens) (UniProt P49841); conditions: Compound concentration 1000.0 nM
[15] = molecular target: Tyrosine-protein kinase JAK2 (Homo sapiens) (UniProt O60674); conditions: Compound concentration 1000.0 nM
[16] = molecular target: Tyrosine-protein kinase Lck (Homo sapiens) (UniProt P06239); conditions: Compound concentration 1000.0 nM
[17] = molecular target: Dual specificity mitogen-activated protein kinase kinase 3 (Homo sapiens) (UniProt P46734); conditions: Compound concentration 1000.0 nM
[18] = molecular target: Tyrosine-protein kinase Mer (Homo sapiens) (UniProt Q12866); conditions: Compound concentration 1000.0 nM
[19] = molecular target: MAP kinase-interacting serine/threonine-protein kinase 1 (Homo sapiens) (UniProt Q9BUB5); conditions: Compound concentration 1000.0 nM
[20] = molecular target: Serine/threonine-protein kinase MRCK beta (Homo sapiens) (UniProt Q9Y5S2); conditions: Compound concentration 1000.0 nM
[21] = molecular target: Serine/threonine-protein kinase 24 (Homo sapiens) (UniProt Q9Y6E0); conditions: Compound concentration 1000.0 nM
[22] = molecular target: Mitogen-activated protein kinase kinase kinase 14 (Homo sapiens) (UniProt Q99558); conditions: Compound concentration 1000.0 nM
[23] = molecular target: Mitogen-activated protein kinase 14 (Homo sapiens) (UniProt Q16539); conditions: Compound concentration 1000.0 nM
[24] = molecular target: Cyclin-dependent kinase 16 (Homo sapiens) (UniProt Q00536); conditions: Compound concentration 1000.0 nM
[25] = molecular target: Cyclin-dependent kinase 14 (Homo sapiens) (UniProt O94921); conditions: Compound concentration 1000.0 nM
[26] = molecular target: cAMP-dependent protein kinase catalytic subunit beta (Homo sapiens) (UniProt P22694); conditions: Compound concentration 1000.0 nM
[27] = molecular target: cAMP-dependent protein kinase catalytic subunit PRKX (Homo sapiens) (UniProt P51817); conditions: Compound concentration 1000.0 nM
[28] = molecular target: Serine/threonine-protein kinase SIK3 (Homo sapiens) (UniProt Q9Y2K2); conditions: Compound concentration 1000.0 nM
[29] = molecular target: Receptor-interacting serine/threonine-protein kinase 4 (Homo sapiens) (UniProt P57078); conditions: Compound concentration 1000.0 nM
[30] = molecular target: Proto-oncogene tyrosine-protein kinase ROS (Homo sapiens) (UniProt P08922); conditions: Compound concentration 1000.0 nM
[31] = molecular target: Ribosomal protein S6 kinase alpha-3 (Homo sapiens) (UniProt P51812); conditions: Compound concentration 1000.0 nM
[32] = molecular target: Ribosomal protein S6 kinase alpha-2 (Homo sapiens) (UniProt Q15349); conditions: Compound concentration 1000.0 nM
[33] = molecular target: STE20-like serine/threonine-protein kinase (Homo sapiens) (UniProt Q9H2G2); conditions: Compound concentration 1000.0 nM
[34] = molecular target: Serine/threonine-protein kinase 16 (Homo sapiens) (UniProt O75716); conditions: Compound concentration 1000.0 nM
[35] = molecular target: STE20/SPS1-related proline-alanine-rich protein kinase (Homo sapiens) (UniProt Q9UEW8); conditions: Compound concentration 1000.0 nM
[36] = molecular target: TGF-beta receptor type-1 (Homo sapiens) (UniProt P36897); conditions: Compound concentration 1000.0 nM
[37] = molecular target: Tyrosine-protein kinase receptor Tie-1 (Homo sapiens) (UniProt P35590); conditions: Compound concentration 1000.0 nM
[38] = molecular target: Testis-specific serine/threonine-protein kinase 1 (Homo sapiens) (UniProt Q9BXA7); conditions: Compound concentration 1000.0 nM
[39] = molecular target: Serine/threonine-protein kinase WNK1 (Homo sapiens) (UniProt Q9H4A3); conditions: Compound concentration 1000.0 nM
[40] = molecular target: Serine/threonine-protein kinase 32A (Homo sapiens) (UniProt Q8WU08); conditions: Compound concentration 1000.0 nM
[41] = molecular target: Mu-type opioid receptor (Homo sapiens) (UniProt P35372); conditions: Compound concentration 10.0 uM
Mu-type opioid receptor (Homo sapiens), sequence (P35372 whole entry): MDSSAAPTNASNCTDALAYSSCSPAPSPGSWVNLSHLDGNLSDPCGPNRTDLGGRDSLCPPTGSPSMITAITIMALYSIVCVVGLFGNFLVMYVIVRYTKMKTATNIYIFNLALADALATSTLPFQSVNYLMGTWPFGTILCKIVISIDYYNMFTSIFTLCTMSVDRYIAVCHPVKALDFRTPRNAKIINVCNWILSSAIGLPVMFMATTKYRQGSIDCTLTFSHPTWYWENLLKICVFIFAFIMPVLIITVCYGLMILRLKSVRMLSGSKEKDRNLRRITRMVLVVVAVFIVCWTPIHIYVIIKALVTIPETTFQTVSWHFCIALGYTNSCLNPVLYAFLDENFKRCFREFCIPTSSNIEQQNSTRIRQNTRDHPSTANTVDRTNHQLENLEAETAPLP

Death-associated protein kinase 2 (Homo sapiens), sequence (Q9UIK4 whole entry, looked up): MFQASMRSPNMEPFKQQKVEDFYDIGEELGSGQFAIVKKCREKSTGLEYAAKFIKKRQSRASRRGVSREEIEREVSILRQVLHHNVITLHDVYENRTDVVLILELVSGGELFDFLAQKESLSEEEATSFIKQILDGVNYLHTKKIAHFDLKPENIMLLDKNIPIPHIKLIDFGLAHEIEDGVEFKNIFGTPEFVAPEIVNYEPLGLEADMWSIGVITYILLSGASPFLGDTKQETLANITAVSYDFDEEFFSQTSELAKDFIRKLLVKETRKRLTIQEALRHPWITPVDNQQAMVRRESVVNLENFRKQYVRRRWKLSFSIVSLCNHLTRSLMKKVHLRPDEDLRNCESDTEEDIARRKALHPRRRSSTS
MAP kinase-interacting serine/threonine-protein kinase 1 (Homo sapiens), sequence (Q9BUB5 whole entry, looked up): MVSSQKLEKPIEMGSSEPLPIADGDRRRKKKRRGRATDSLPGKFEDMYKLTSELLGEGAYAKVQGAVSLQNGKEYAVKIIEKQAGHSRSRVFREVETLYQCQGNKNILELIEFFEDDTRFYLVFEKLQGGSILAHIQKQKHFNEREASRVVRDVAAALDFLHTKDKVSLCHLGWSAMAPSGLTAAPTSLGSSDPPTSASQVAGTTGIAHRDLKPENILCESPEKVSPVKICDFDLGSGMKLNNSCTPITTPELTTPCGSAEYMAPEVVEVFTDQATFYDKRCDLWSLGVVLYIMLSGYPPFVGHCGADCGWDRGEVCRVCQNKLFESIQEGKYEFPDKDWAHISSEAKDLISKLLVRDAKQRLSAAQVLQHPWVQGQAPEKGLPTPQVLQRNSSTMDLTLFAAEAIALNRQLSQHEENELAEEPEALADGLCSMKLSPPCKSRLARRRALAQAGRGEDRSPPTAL
Ribosomal protein S6 kinase alpha-3 (Homo sapiens), sequence (P51812 whole entry): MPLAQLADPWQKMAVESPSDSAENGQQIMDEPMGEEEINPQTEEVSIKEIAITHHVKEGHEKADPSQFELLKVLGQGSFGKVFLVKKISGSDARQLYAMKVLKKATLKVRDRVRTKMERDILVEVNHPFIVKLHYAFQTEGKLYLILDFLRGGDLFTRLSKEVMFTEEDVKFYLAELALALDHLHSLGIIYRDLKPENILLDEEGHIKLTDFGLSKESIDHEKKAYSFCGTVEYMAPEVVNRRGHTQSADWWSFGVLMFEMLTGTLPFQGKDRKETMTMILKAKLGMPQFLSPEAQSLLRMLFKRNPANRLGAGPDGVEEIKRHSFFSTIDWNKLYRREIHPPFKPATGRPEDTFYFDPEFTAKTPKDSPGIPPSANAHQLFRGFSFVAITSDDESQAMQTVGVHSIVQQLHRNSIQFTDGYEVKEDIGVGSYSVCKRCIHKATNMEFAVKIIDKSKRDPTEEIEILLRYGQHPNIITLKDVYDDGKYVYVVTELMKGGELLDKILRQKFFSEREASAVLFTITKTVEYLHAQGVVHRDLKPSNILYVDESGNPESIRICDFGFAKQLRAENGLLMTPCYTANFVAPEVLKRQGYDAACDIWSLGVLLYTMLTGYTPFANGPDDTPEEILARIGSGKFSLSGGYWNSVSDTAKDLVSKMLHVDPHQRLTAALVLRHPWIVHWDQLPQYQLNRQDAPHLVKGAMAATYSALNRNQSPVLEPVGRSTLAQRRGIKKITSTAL
Casein kinase I isoform gamma-2 (Homo sapiens), sequence (P78368 whole entry, looked up, canonical isoform): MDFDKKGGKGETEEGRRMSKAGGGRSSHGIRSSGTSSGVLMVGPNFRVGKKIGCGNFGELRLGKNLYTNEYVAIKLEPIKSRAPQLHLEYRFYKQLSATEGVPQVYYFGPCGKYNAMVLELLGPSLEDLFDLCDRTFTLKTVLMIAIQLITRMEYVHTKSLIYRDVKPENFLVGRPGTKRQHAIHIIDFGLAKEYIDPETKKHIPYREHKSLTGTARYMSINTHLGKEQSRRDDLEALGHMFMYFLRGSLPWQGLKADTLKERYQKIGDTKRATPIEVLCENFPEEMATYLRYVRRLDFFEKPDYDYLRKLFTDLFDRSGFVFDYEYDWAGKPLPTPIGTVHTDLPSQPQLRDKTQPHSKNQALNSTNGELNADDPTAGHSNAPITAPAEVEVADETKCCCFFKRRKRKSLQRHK
Mitogen-activated protein kinase kinase kinase 14 (Homo sapiens), sequence (Q99558 whole entry, looked up): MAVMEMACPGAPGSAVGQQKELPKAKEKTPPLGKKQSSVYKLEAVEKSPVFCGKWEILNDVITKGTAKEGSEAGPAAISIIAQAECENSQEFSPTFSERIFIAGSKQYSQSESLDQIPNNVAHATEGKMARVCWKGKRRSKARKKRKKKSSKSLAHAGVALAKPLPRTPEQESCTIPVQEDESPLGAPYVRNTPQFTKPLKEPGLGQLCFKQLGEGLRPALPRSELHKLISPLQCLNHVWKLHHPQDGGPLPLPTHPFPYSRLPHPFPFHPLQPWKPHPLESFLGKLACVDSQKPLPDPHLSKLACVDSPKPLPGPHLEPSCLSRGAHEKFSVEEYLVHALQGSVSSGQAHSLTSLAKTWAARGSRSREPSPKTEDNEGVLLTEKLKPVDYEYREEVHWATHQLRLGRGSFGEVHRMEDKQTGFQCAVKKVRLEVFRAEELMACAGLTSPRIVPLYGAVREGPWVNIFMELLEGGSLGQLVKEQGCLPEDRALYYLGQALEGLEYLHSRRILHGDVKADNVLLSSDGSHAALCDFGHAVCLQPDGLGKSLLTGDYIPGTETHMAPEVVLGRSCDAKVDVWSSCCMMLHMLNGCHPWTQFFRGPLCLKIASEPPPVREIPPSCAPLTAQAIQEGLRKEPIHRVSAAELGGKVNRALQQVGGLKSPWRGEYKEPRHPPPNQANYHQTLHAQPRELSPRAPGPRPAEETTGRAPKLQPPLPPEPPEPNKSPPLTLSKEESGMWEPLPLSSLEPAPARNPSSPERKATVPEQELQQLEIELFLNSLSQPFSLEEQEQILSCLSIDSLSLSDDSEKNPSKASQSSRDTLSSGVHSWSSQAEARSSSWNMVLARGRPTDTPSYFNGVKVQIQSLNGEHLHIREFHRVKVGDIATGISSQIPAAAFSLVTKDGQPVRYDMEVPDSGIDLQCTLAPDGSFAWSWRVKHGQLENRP
Casein kinase I isoform delta (Homo sapiens), sequence (P48730 whole entry, looked up, canonical isoform): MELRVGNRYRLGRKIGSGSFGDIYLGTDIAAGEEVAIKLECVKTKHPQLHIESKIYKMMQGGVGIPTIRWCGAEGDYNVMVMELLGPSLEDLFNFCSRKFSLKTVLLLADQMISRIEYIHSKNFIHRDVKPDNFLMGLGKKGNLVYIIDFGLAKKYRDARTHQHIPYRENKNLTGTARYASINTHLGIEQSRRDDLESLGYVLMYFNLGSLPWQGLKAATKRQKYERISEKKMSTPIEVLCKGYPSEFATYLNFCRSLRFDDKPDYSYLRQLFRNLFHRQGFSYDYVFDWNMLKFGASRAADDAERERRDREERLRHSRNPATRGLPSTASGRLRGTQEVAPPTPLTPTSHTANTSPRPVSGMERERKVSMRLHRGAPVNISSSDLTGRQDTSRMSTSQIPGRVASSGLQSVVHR
Dual specificity mitogen-activated protein kinase kinase 3 (Homo sapiens), sequence (P46734 whole entry): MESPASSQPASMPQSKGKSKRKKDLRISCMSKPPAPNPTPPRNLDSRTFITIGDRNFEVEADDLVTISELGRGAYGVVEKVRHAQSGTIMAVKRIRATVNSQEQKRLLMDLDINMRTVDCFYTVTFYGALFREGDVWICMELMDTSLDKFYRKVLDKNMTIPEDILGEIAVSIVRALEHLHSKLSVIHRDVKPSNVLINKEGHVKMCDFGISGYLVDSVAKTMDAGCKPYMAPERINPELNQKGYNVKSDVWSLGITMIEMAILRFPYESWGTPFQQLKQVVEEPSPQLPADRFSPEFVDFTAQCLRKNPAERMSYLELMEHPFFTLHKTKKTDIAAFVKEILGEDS
TGF-beta receptor type-1 (Homo sapiens), sequence (P36897 whole entry): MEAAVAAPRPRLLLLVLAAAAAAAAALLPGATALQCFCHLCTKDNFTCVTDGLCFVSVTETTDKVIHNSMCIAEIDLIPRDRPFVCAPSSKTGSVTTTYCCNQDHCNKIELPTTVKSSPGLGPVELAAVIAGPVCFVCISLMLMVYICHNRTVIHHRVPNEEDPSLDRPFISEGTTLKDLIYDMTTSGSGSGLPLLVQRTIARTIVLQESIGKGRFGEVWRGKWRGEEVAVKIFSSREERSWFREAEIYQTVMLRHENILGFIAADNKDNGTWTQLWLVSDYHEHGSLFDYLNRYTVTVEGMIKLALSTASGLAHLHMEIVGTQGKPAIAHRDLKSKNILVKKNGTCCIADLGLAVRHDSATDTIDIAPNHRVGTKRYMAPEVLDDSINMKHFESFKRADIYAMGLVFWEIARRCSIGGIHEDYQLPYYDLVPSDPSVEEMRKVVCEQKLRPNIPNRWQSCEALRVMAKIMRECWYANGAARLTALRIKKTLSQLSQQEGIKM
cAMP-dependent protein kinase catalytic subunit PRKX (Homo sapiens), sequence (P51817 whole entry): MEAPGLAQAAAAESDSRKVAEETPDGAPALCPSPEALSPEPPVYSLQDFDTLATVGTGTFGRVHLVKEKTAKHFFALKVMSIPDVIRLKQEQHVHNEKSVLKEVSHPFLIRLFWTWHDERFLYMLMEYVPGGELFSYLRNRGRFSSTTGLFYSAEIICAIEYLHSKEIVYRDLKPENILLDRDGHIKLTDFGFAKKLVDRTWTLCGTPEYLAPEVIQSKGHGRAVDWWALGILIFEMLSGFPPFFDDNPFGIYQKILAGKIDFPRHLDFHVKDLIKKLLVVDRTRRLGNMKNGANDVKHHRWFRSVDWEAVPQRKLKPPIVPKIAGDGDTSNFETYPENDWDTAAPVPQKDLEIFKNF

CCC(=N\O)/C(C)=C/c1ccc(F)c(C)c1 [A-226]
inactive: residual activity [1] 100% | residual activity [2] 100% | residual activity [3] 100% | residual activity [4] 100% | residual activity [5] 92% | residual activity [6] 100% | residual activity [7] 73% | residual activity [8] 85% | residual activity [9] 90% | residual activity [10] 100% | residual activity [11] 98% | residual activity [12] 92% | residual activity [13] 89% | residual activity [14] 100% | residual activity [15] 100% | residual activity [16] 87% | residual activity [17] 100% | residual activity [18] 100% | residual activity [19] 100% | residual activity [20] 69% | residual activity [21] 86% | residual activity [22] 100% | residual activity [23] 100% | residual activity [24] 100% | residual activity [25] 92% | residual activity [26] 100% | residual activity [27] 94% | residual activity [28] 89% | residual activity [29] 100% | residual activity [30] 88% | residual activity [31] 100% | residual activity [32] 100% | residual activity [33] 93% | residual activity [34] 84% | residual activity [35] 100% | residual activity [36] 88% | residual activity [37] 100% | residual activity [38] 90% | residual activity [39] 100% | residual activity [40] 100% | inhibition [41] -1.52%

CCC(=N\O)/C(C)=C/c1ccc(F)cc1 [A-079]
inactive: residual activity [1] 77% | residual activity [2] 100% | residual activity [3] 97% | residual activity [4] 97% | residual activity [5] 81% | residual activity [6] 87% | residual activity [7] 100% | residual activity [8] 97% | residual activity [9] 100% | residual activity [10] 73% | residual activity [11] 66% | residual activity [12] 71% | residual activity [13] 100% | residual activity [14] 79% | residual activity [15] 71% | residual activity [16] 82% | residual activity [17] 94% | residual activity [18] 100% | residual activity [19] 56% | residual activity [20] 100% | residual activity [21] 100% | residual activity [22] 84% | residual activity [23] 100% | residual activity [24] 86% | residual activity [25] 91% | residual activity [26] 89% | residual activity [27] 96% | residual activity [28] 68% | residual activity [29] 83% | residual activity [30] 87% | residual activity [31] 100% | residual activity [32] 100% | residual activity [33] 91% | residual activity [34] 97% | residual activity [35] 94% | residual activity [36] 85% | residual activity [37] 63% | residual activity [38] 82% | residual activity [39] 83% | residual activity [40] 100% | inhibition [41] -5.9%
